Patent US10849893B2 (Athenex HK Innovative Limited, priority 2018, dated 2020)
Several values for one entry are separate records, joined by “and”; a condition that tells them apart may be missing. Equal values may be shown once. Read-outs that look alike come from different tables or passages of the source.

Tests used:
[1] = set-up: Dose Normalized AUC: unit not given beside the values; settings: cited from earlier work
[2] = for Reported half-life: individual values, sampling to 168 h, LLOQ 0.2 ng/mL
Protocol: A 2-part study was conducted in subjects with solid tumors (“Study 2”). […] The dose levels increased to 75 mg/m^2, 150 mg/m^2, 225 mg/m^2, 300 mg/m^2, 375 mg/m^2, and 400 mg/m^2. In the second part of this study, half of the group starting at a selected dose from stage 1, was given over two consecutive days every three weeks. A total of 15 (n=40) subjects enrolled in this study.
All subject PK data within the dataset were analyzed using Phoenix 8.0. […] Individual time points for the terminal slope were automatically selected by the software, and linear up—log down interpolation calculation method was used for the analysis. Individual BLQ samples were set to 0.00 ng/ml for noncompartmental analysis unless the PK sample occurred between two PK samples above the limit of quantification, in which case the PK sample was set to missing. For the calculation of summary statistics and mean concentration figures, all BLQ samples were set to 0.00 ng/ml.

[3] = IV 20 mg/m^2, infusion 1 h, n = 1
[4] = IV 20 mg/m^2, infusion 24 h, n = 1
[5] = IV 30 mg/m^2, infusion 1.58 (0.80) h, n = 2
[6] = IV 40 mg/m^2, infusion 1 h, n = 1
[7] = IV 40 mg/m^2, infusion 24 h, n = 3
[8] = IV 55 mg/m^2, infusion 1.68 (0.75) h, n = 3
[9] = IV 55 mg/m^2, infusion 24 h, n = 4
[10] = IV 70 mg/m^2, infusion 1.37 (0.53) h, n = 2
[11] = IV 70 mg/m^2, infusion 24 h, n = 3
[12] = IV 85 mg/m^2, infusion 1.61 (0.81) h, n = 6
[13] = IV 90 mg/m^2, infusion 24 h, n = 5
[14] = IV 100 mg/m^2, infusion 2.03 (0.09) h, n = 4
[15] = IV 115 mg/m^2, infusion 1.84 (0.28) h, n = 4
[16] = oral 35 mg/m^2 with Compound A, Mean, N=4
[17] = oral 35 mg/m^2 with Compound A, individual subjects
[18] = oral 75 mg/m^2 with Compound A, Mean, N=3
[19] = oral 75 mg/m^2 with Compound A, individual subjects
[20] = oral 75 mg/m^2 with Compound A, individual subjects, listed as Docetaxel
[21] = oral 150 mg/m^2 with Compound A, individual subjects
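For AUC % Extrapobs in this document: noncompartmental pharmacokinetic analysis in subjects with solid tumors, using linear-up log-down interpolation, with terminal slope time points picked automatically by the software.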
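For Average Time above Target (0 to last time point measured above 4 ng/ml) in this document: noncompartmental pharmacokinetic analysis in subjects with solid tumors, using linear-up log-down interpolation, with terminal slope time points picked automatically by the software.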
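For Reported half-life in this document: noncompartmental pharmacokinetic analysis in subjects with solid tumors, using linear-up log-down interpolation, with terminal slope time points picked automatically by the software.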
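For docetaxel plasma concentration vs in vitro target IC50 of 5 nM (4 ng/mL) in this document: noncompartmental pharmacokinetic analysis in subjects with solid tumors, using linear-up log-down interpolation, with terminal slope time points picked automatically by the software.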

CC(=O)O[C@@]12CO[C@@H]1C[C@H](O)[C@@]1(C)C(=O)[C@H](O)C3=C(C)[C@@H](OC(=O)[C@H](O)[C@@H](NC(=O)OC(C)(C)C)c4ccccc4)C[C@@](O)([C@@H](OC(=O)c4ccccc4)[C@H]21)C3(C)C [docetaxel, (2aR,4S,4aS,6R,9S,11S,12S,12aR,12b S)-12b-acetoxy-9-(((2R,3S)-3-((tert-butoxycarbonyl)amino)-2-hydroxy-3-phenylpropanoyl)oxy)-4,6,11-trihydroxy-4a,8,13,13-tetramethyl-5-oxo-2a,3,4,4a,5,6,9,10,11,12,12a, 12b-dodecahydro-1H-7,11-methanocyclodeca[3,4]benzo[1,2-b]oxet-12-yl benzoate]
AUC0-24 [1, 3]: 960 ng·h/mL | Dose Normalized AUC [1, 3]: 48 | t1/2 γ [1, 3]: 2.2 h | AUC0-24 [1, 4]: 920 ng·h/mL | Dose Normalized AUC [1, 4]: 46 | AUC0-24 [1, 5]: 1260 ng·h/mL | Cmax [1, 5]: 640 (450) ng/ml | Dose Normalized AUC [1, 5]: 42 | t1/2 γ [1, 5]: 4.6 h | AUC0-24 [1, 6]: 670 ng·h/mL | Cmax [1, 6]: 420 ng/mL | Dose Normalized AUC [1, 6]: 16.75 | t1/2 γ [1, 6]: 3.8 h | AUC0-24 [1, 7]: 2190 ng·h/mL | Dose Normalized AUC [1, 7]: 54.75 | AUC0-24 [1, 8]: 1420 ng·h/mL | Cmax [1, 8]: 820 (380) ng/ml | Dose Normalized AUC [1, 8]: 25.82 | t1/2 γ [1, 8]: 2 h | AUC0-24 [1, 9]: 2560 ng·h/mL | Dose Normalized AUC [1, 9]: 46.55 | AUC0-24 [1, 10]: 2790 ng·h/mL | Cmax [1, 10]: 1910 (320) ng/ml | Dose Normalized AUC [1, 10]: 39.86 | t1/2 γ [1, 10]: 2.5 h | AUC0-24 [1, 11]: 3470 ng·h/mL | Dose Normalized AUC [1, 11]: 49.57 | AUC0-24 [1, 12]: 4100 ng·h/mL | Cmax [1, 12]: 2420 (920) ng/ml | Dose Normalized AUC [1, 12]: 48.24 | t1/2 γ [1, 12]: 13.6 h | AUC0-24 [1, 13]: 7810 ng·h/mL | Dose Normalized AUC [1, 13]: 86.78 | AUC0-24 [1, 14]: 5930 ng·h/mL | Cmax [1, 14]: 2410 (250) ng/ml | Dose Normalized AUC [1, 14]: 59.30 | t1/2 γ [1, 14]: 18.5 h | AUC0-24 [1, 15]: 5190 ng·h/mL | Cmax [1, 15]: 2680 (930) ng/ml | Dose Normalized AUC [1, 15]: 45.13 | t1/2 γ [1, 15]: 9.6 h | docetaxel plasma concentration vs in vitro target IC50 of 5 nM (4 ng/mL) ([2]; individuals administered 35 or 75 mg/m^2 oral docetaxel): > 4 ng/mL | Reported half-life ([2]; oral 35 mg/m^2): 35 mg/m^2: 3.4 h, and 19.1 h and 65.3 h | Average Time above Target (0 to last time point measured above 4 ng/ml) ([2]; oral 35 mg/m^2 SD): 7.5 h | Dose Normalized AUC ([2]; oral 35 mg/m^2 with Compound A): 39.97 | AUC % Extrapobs [2, 16]: 7.51% | Tmax [2, 16]: 1.50 h | AUC0-12 [2, 17]: 145 ng·h/mL and 39.8 ng·h/mL and 198 ng·h/mL and 353 ng·h/mL | AUC0-24 [2, 17]: 178 ng·h/mL and 46.1 ng·h/mL and 227 ng·h/mL and 392 ng·h/mL | AUC0-48 [2, 17]: 218 ng·h/mL and 46.1 ng·h/mL and 257 ng·h/mL and 440 ng·h/mL | AUC % Extrapobs [2, 17]: 7.76% and 11.4% and 3.39% and 7.45% | AUCINF—obs [2, 17]: 259 ng·h/mL and 44.9 ng·h/mL and 279 ng·h/mL and 599 ng·h/mL | Cmax [2, 17]: 38.0 ng/mL and 73.0 ng/mL and 157 ng/mL and 8.59 ng/mL | Tmax [2, 17]: 2.00 h and 1.00 h | t1/2 [2, 17]: 22.8 h and 3.40 h and 19.1 h and 65.3 h | AUC0-24 ([2]; oral 35 mg/m^2 with Compound A, individual subjects by cancer diagnosis): 170 to 392 ng·h/mL | AUC0-24 ([2]; oral 35 mg/m^2 with Compound A, individual subjects by cancer diagnosis, listed as Docetaxel): 170 ng·h/mL and 227 ng·h/mL and 392 ng·h/mL | Reported half-life ([2]; oral 75 mg/m^2): 62.4 h and 45.8 h | Average Time above Target (0 to last time point measured above 4 ng/ml) ([2]; oral 75 mg/m^2 SD): 21.5 h | Dose Normalized AUC ([2]; oral 75 mg/m^2 with Compound A): 38.23 | AUC0-12 [2, 18]: 512 ng·h/mL | AUC0-24 [2, 18]: 598 ng·h/mL | AUC % Extrapobs [2, 18]: 3.89% | Tmax [2, 18]: 2.00 h | Cmax [2, 19]: 81.6 to 190 ng/mL | Tmax [2, 19]: 2.00 h | AUC0-24 ([2]; oral 75 mg/m^2 with Compound A, individual subjects by cancer diagnosis): 304 to 1030 ng·h/mL | AUC0-24 ([2]; oral 75 mg/m^2 with Compound A, individual subjects by cancer diagnosis, listed as Docetaxel): 461 ng·h/mL and 304 ng·h/mL and 1030 ng·h/mL | AUC0-12 [2, 20]: 390 ng·h/mL and 270 ng·h/mL and 875 ng·h/mL | AUC0-24 [2, 20]: 461 ng·h/mL and 304 ng·h/mL and 1030 ng·h/mL | AUC0-48 [2, 20]: 543 ng·h/mL and 334 ng·h/mL and 1150 ng·h/mL | AUC % Extrapobs [2, 20]: 4.31% and 4.87% and 2.50% | AUCINF—obs [2, 20]: 690 ng·h/mL and 409 ng·h/mL and 1350 ng·h/mL | Cmax [2, 20]: 165 ng/mL and 81.6 ng/mL and 190 ng/mL and 270 ng/mL | t1/2 [2, 20]: 62.1 h and 45.8 h | Reported half-life ([2]; oral 150 mg/m^2): 53.3 h and 63.3 h | Average Time above Target (0 to last time point measured above 4 ng/ml) ([2]; oral 150 mg/m^2 SD): 15.5 h | Dose Normalized AUC ([2]; oral 150 mg/m^2 with Compound A): 26.70 | AUC0-12 [2, 21]: 898 ng·h/mL and 650 ng·h/mL | AUC0-24 [2, 21]: 1050 ng·h/mL and 720 ng·h/mL and 490 ng·h/mL | AUC0-48 [2, 21]: 1150 ng·h/mL and 775 ng·h/mL and 538 ng·h/mL | AUC % Extrapobs [2, 21]: 5.59% and 2.53% and 5.32% | AUCINF—obs [2, 21]: 1380 ng·h/mL and 876 ng·h/mL and 673 ng·h/mL
